Patent US7238813B2, “Chemical compounds” (Smithkline Beecham Corporation, priority 2000, dated 2007)
Where a name gives a salt, the structure may show the parent alone.

Columns and labels:
[1] = molecular target: T1, TIE2 intracellular domain/c-fms extracellular domain (TIE2/c-fms) chimeric protein expressing mouse 3T3 cells (Homo sapiens, UniProt Q02763); assay: TIE-2 autophosphorylation assay (TIE2-C), ELISA; format: cell-based; conditions: TIE2/c-fms 3T3 cells, MCSF activation
T1 construct: a TIE2 intracellular domain/c-fms extracellular domain (TIE2/c-fms) chimeric protein; expressed in transfected cells; host or cells: mouse 3T3 cells
T1 sequence (Q02763 770-1124 limits assumed, change not shown): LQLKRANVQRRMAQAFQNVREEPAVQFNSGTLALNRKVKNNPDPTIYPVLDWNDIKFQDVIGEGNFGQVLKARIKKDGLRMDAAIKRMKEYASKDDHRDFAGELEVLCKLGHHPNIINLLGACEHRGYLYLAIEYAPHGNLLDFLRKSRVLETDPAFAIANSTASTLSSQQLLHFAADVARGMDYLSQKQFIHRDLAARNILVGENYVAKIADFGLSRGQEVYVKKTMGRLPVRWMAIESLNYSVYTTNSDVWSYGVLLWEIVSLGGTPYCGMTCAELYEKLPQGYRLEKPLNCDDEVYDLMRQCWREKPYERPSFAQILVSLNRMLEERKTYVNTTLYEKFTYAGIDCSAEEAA
Experimental: TIE-2 Autophosphorylation Assay (TIE2-C)
The TIE-2 autophosphorylation assay used an ELISA method and a TIE2 intracellular domain/c-fms extracellular domain (TIE2/c-fms) chimeric protein expressing mouse 3T3 cells. This assay measured the autophosphorylation level of TIE2 protein expressed in cells. The cells were cultured in high glucose DMEM (Sigma) containing 10% serum at 37° C. in a humidified 10% CO2, 90% air incubator. The test compound (diluted from a 10 mM stock in DMSO, final DMSO concentration was 0.1%) was incubated with TIE2/c-fms expressing cells for 1 hr in serum free DMEM in 96 well plates followed by the activation of TIE2/c-fms receptor using c-fms ligand, MCSF (macrophage colony stimulating factor). The culture media was removed by aspiration and the cells incubated for at least 30 mins on ice with lysis buffer containing 137 mM NaCl, 2 mM EDTA, 10% glycerol, […] sodium ortho vanadate and complete protease inhibitor cocktail (Roche) in 20 mM Tris-HCl (pH8.0). The cell extracts were transferred into Rat anti-c-fms antibody coated 96 well plates and incubated for 12 hrs at 4° C. The extracts were removed by aspiration and the plate was incubated with biotinylated anti-phosphotyrosine antibody, PT66 (Sigma) and then with HRP (Horseradish Peroxidase)-labeled streptavidin (PIERCE). The optical density at 450 nm derived from HRP catalyzed TMB was measured with an ARVO multilabel counter. (Wallac Berthold Japan). The percent inhibition of activity was calculated relative to blank control wells. The concentration of test compound that inhibits 50% of activity (IC50) was interpolated using nonlinear regression (Levernberg-Marquardt) and the equation, y=Vmax (1−x/(K+x))+Y2, where “K” was equal to the IC50. The IC50 values were converted to pIC50 values, i.e., −log IC50 in Molar concentration.

GST-VEGFR2 = molecular target: T2, GST-VEGFR2 (Homo sapiens, UniProt P35968); assay: VEGF-R2 enzyme assay (VEGF-E), LANCE method; format: biochemical; conditions: 75 μM ATP
T2 construct: GST-VEGFR2, baculovirus expressed recombinant constructs of the intracellular domains of human TIE2 tagged by GST; made in house
T2 sequence (P35968 786-1356 limits assumed): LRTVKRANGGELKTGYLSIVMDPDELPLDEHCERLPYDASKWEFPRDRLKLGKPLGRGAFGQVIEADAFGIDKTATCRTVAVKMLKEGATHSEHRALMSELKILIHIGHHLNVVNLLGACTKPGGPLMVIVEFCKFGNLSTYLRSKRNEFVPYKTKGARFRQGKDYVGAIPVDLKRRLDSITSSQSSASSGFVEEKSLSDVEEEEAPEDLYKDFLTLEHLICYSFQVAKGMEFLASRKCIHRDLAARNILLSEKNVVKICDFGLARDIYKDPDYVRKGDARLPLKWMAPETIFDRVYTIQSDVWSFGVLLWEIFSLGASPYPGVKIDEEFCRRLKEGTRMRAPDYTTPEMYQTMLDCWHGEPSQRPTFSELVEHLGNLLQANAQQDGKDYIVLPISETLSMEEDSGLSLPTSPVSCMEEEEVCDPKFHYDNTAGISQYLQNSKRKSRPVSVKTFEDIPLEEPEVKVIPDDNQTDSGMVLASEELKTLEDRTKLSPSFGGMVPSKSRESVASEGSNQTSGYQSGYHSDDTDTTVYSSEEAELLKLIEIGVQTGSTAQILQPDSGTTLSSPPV
Experimental: VEGF-R2 Enzyme Assay (VEGF-E)
The VEGF enzyme assay used the LANCE method (Wallac) and GST-VEGFR2, baculovirus expressed recombinant constructs of the intracellular domains of human […] tagged by GST. […] The reaction was stopped by the addition of EDTA (final concentration 50 mM). Streptavidin linked-APC (allophycocyanin, Molecular Probe) and Europium-labeled anti-phosphorylated tyrosine antibody (Wallac) were then added at the final concentration of 15 nM and 1 nM, respectively. The APC signal was measured using an ARVO multilabel counter (Wallac Berthold, Japan). The percent inhibition of activity was calculated relative to blank control wells. The concentration of test compound that inhibits 50% of activity (IC50) was interpolated using nonlinear regression (Levernberg-Marquardt) and the equation, y=Vmax (1−x/(K+x))+Y2, where “K” was equal to the IC50. The IC50 values were converted to pIC50 values, i.e., −log IC50 in Molar concentration.

[2] = molecular target: T3, GST-TIE2 (intracellular domains of human TIE2) (Homo sapiens, UniProt Q02763); assay: TIE-2 enzyme assay (TIE2-E), LANCE method; format: biochemical; conditions: 80 uM ATP
T3 construct: made in house
T3 sequence (Q02763 762-1104): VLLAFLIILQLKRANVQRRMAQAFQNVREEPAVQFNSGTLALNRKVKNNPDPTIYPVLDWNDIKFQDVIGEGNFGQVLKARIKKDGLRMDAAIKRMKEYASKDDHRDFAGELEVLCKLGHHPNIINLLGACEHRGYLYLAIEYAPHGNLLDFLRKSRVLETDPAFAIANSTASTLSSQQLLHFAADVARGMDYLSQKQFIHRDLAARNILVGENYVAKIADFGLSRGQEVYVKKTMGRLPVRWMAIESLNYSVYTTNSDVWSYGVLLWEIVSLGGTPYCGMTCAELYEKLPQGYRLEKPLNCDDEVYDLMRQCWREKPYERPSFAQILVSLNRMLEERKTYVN
Experimental: TIE-2Enzyme Assay (TIE2-E)
The TIE-2 enzyme assay used the LANCE method (Wallac) and GST-TIE2, baculovirus expressed recombinant constructs of the intracellular domains of human TIE2 (amino acids 762–1104, GenBank Accession # L06139) tagged by GST). […] This peptide phosphorylation was detected using the following procedure: for enzyme preactivation, GST-TIE2 was incubated for 30 mins at room temperature with 2 mM ATP, 5 mM MgCl2 and 12.5 mM DTT in 22.5 mM HEPES buffer (pH7.4). Preactivated GST-TIE2 was incubated for 30 mins at room temperature in 96 well plates with 1 μM D1-15 peptide, 80 uM ATP, 10 mM MgCl2, 0.1 mg/ml BSA and the test compound (diluted from a 10 mM stock in DMSO, final DMSO concentration was 2.4%) in 1 mM HEPES (pH7.4). The reaction was stopped by the addition of EDTA (final concentration 45 mM). Streptavidin linked-APC (allophycocyanin, Molecular Probe) and Europium-labeled anti-phosphorylated tyrosine antibody (Wallac) were then added at the final concentration of 17 μg/well and 2.1 μg/well, respectively. The APC signal was measured using an ARVO multilabel counter. (Wallac Berthold Japan). The percent inhibition of activity was calculated relative to blank control wells. The concentration of test compound that inhibits 50% of activity (IC50) was interpolated using nonlinear regression (Levernberg-Marquardt) and the equation, y=Vmax (1−x/(K+x))+Y2, where “K” was equal to the IC50. The IC50 values were converted to pIC50 values, i.e., −log IC50 in Molar concentration.

SMILES	IC50 [1] [nM]	IC50 (GST-VEGFR2) [nM]	IC50 [2] [nM]
CN(C)CCNc1nc2cc(Oc3ccc(NC(=O)Nc4cc(C(F)(F)F)ccc4F)cc3)ccc2[nH]1 [Example 105, 2-(2-(Dimethylamino)ethylamino)-5-(4-((2-fluoro-5-(trifluoromethyl)phenyl)aminocarbonylamino)phenoxy)-1H-benzimidazole]	1000 to 10000	< 100	100 to 1000
COC(=O)Nc1nc2ccc(Oc3cccc(NC(=O)Nc4cc(C(F)(F)F)ccc4Cl)c3)cc2[nH]1 [Example 52, Methyl N-(5-(3-((2-chloro-5-(trifluoromethyl)phenyl)aminocarbonylamino)phenoxy)-1H-benzimidazol-2-yl)carbamate hydrochloride]	100 to 1000	< 100	< 100
COC(=O)Nc1nc2ncc(Oc3ccc(NC(=O)Nc4cc(C(F)(F)F)ccc4Cl)cc3)cc2[nH]1 [Example 73, Methyl N-(6-(4-((2-chloro-5-(trifluoromethyl)phenyl)aminocarbonylamino)phenoxy)-3,4-diaza-1H-indole-2-yl)carbamate dihydrochloride]	100 to 1000	< 100	100 to 1000
CN1CCN(CCCNc2nc3ccc(Oc4ccc(NC(=O)Nc5cc(C(F)(F)F)ccc5F)cc4)cc3[nH]2)CC1 [Example 106, 2-(3-(4-methyl-1-piperazino)propylamino)-5-(4-((2-fluoro-5-(trifluoromethyl)phenyl)aminocarbonylamino)phenoxy)-1H-benzimidazole]	100 to 1000	< 100	100 to 1000
COC(=O)Nc1nc2ccc(Oc3ccc(NC(=O)Nc4cc(C(F)(F)F)ccc4F)c[n+]3[O-])cc2[nH]1 [Example 107, Methyl N-(5-(5-((2-fluoro-5-(trifluoromethyl)phenyl)aminocarbonylamino)-1-oxo-2-pyridyloxy)-1H-benzimidazol-2-yl)carbamate]	100 to 1000	100 to 1000	< 100
CN1CCN(CCNc2nc3cc(Oc4ccc(NC(=O)Nc5cc(C(F)(F)F)ccc5F)cc4)ccc3[nH]2)CC1 [Example 104, 2-(2-(4-Methyl-1-piperazino)ethylamino)-5-(4-((2-fluoro-5-(trifluoromethyl)phenyl)aminocarbonylamino)phenoxy)-1H-benzimidazole]	100 to 1000	< 100	100 to 1000
COC(=O)Nc1nc2c(Br)cc(Oc3ccc(NC(=O)Nc4cc(C(F)(F)F)ccc4F)cc3)cc2s1.Cl [Example 65, Methyl N-(4-bromo-6-(4-((6-fluoro-3-(trifluoromethylphenyl)aminocarbonylamino)phenoxy)benzthiazol-2-yl)carbamate hydrochloride]	< 100	< 100	< 100
COC(=O)Nc1nc2cc(Oc3ccc(NC(=S)Nc4cccc(Cl)c4)cc3)ccc2[nH]1 [Example 184, Methyl N-(5-(4-((3-chlorophenyl)aminothiocarbonylamino)phenoxy)-1H-benzimidazol-2-yl)carbamate]	1000 to 10000	< 100	1000 to 10000
O=C(Nc1ccc(Oc2ccc3nc(NC(=O)c4cccs4)[nH]c3c2)cc1)Nc1cc(C(F)(F)F)ccc1F [Example 100, N-(5-(4-((2-Fluoro-5-(trifluoromethyl)phenyl)aminocarbonylamino)phenoxy)-1H-benzimidazol-2-yl)-2-thiophenecarboxamide]	< 100	< 100	< 100
CC(=O)Nc1nc2ccc(Oc3ccc(NC(=O)Nc4cc(C(F)(F)F)ccc4F)nc3)cc2n1Cc1ccccc1 [Example 110]	100 to 1000	100 to 1000	< 100
COC(=O)Nc1nc2cc([S+]([O-])c3ccc(NC(=O)Nc4cc(Cl)ccc4Cl)cc3)ccc2[nH]1 (centres unmarked) [Example 79, Methyl N-(5-(4-((2,5-dichlorophenyl)aminocarbonylamino)phenylsulfinyl)-1H-benzimidazol-2-yl)carbamate]	100 to 1000		100 to 1000
O=C(Nc1ccc(Oc2ccc3nc(NC(=O)c4ccc(-n5cccc5)cc4)[nH]c3c2)cc1)Nc1cc(C(F)(F)F)ccc1F [Example 90, N-(5-(4-((2-Fluoro-5-(trifluoromethyl)phenyl)aminocarbonylamino)phenoxy)-1H-benzimidazol-2-yl)-4-(pyrrol-1-yl)benzamide]	1000 to 10000	< 100	< 100
COC(=O)Nc1nc2cc(Sc3ccc(NC(=O)Nc4cc(Cl)ccc4Cl)cc3)ccc2[nH]1 [Example 57, Methyl N-(5-(4-((2,5-dichlorophenyl)aminocarbonylamino)phenylthio)-1H-benzimidazol-2-yl)carbamate]	100 to 1000		< 100
CCc1cccc(NC(=O)Nc2cccc(Oc3ccc4[nH]c(NC(=O)OC)nc4c3)c2)c1 [Example 16, Methyl N-(5-(3-((3-ethylphenyl)aminocarbonylamino)phenoxy)-1H-benzimidazol-2-yl)carbamate]	< 100	< 100	< 100
COC(=O)Nc1nc2ccc(Oc3ccc(NC(=S)Nc4cccc(C(F)(F)F)c4)cc3)cc2[nH]1 [Example 186, Methyl N-(5-(4-((3-(trifluoromethyl)phenyl)aminothiocarbonylamino)phenoxy)-1H-benzimidazol-2-yl)carbamate]	100 to 1000		1000 to 10000
O=C(Nc1ccc(Oc2ccc3nc(NC(=O)c4c[nH]c5ccccc45)[nH]c3c2)cc1)Nc1cc(C(F)(F)F)ccc1F [Example 95, N-(5-(4-((2-Fluoro-5-(trifluoromethyl)phenyl)aminocarbonylamino)phenoxy)-1H-benzimidazol-2-yl)(1H-indole-3-carboxamide)]	100 to 1000	< 100	< 100
CCc1cccc(NC(=O)Nc2ccc(Oc3ccc4[nH]c(NC(=O)OC)nc4c3)nc2)c1 [Example 39, Methyl N-(5-(5-((3-ethylphenyl)aminocarbonylamino)-2-pyridyloxy)-1H-benzimidazol-2-yl)carbamate]	100 to 1000	100 to 1000	100 to 1000
O=C(Nc1ccc(Oc2ccc3[nH]c(NC(=O)c4ccccc4)nc3c2)cc1)Nc1cc(C(F)(F)F)ccc1F [Example 99, N-(5-(4-((2-Fluoro-5-(trifluoromethyl)phenyl)aminocarbonylamino)phenoxy)-1H-benzimidazol-2-yl)benzamide]	100 to 1000		< 100
COC(=O)Nc1nc2cc(Oc3ccc(NC(=O)Nc4cc(Cl)ccc4Cl)cn3)ccc2[nH]1 [Example 112, Methyl N-(5-(5-((2,5-dichlorophenyl)aminocarbonylamino)-2-pyridyloxy)-1H-benzimidazol-2-yl)carbamate dihydrochloride]	100 to 1000	100 to 1000	100 to 1000
